According to ChEMBL document CHEMBL5042497, “Design, synthesis, and biological evaluation of carbamate derivatives of N-salicyloyl tryptamine as multifunctional agents for the treatment of Alzheimer's disease” (Eur J Med Chem, 2022):
Calls of active or inactive are those of the source. The calls are words filed in the database; no cut-off is given here.

Assays:
[1] = MRT(0 to t) in Sprague-Dawley rat at 100 mg/kg, po measured upto 24 hrs by LC-MS analysis; assay type: ADME, organism-based; details: in vivo
[2] = Acute toxicity in Sprague-Dawley rat assessed as histological changes in spleen at 2000 mg/kg, IG administered as single dose measured after 14 days by H and E staining based analysis; assay type: organism-based; details: in vivo, po, 336 h, time 14 day
[3] = target: T1, Cholinesterase (Equus caballus, UniProt P81908); experiment: Inhibition of equine serum BChE using butyrylthiocholine iodide as substrate preincubated for 10 mins followed by substrate addition and measured after 15 mins by Ellman's method
[4] = Acute toxicity in Sprague-Dawley rat assessed as behavioral abnormality at 2000 mg/kg, IG administered as single dose measured after 14 days; assay type: organism-based; details: in vivo, po, 336 h, time 14 day
[5] = test system: BV-2; experiment: Effect of compound on LPS- induced iNOS production in mouse BV-2 cells incubated for 24 hrs by western blot analysis; assay type: functional, cell-based; details: dose 6.25-25 µM
[6] = target: Amyloid-beta precursor protein (Homo sapiens) (UniProt P05067); experiment: Inhibition of amyloid beta (1 to 42 ) (unknown origin) aggregation at 20 umol/L incubated for 24 hrs by thioflavin-T fluorescence method relative to control; details: dose 20.0 µmol/L
[7] = target: T1, Cholinesterase; experiment: Inhibition of equine serum BChE using butyrylthiocholine iodide as substrate assessed as inhibition constant at 0.78 to 12.5 uM preincubated for 10 mins followed by substrate addition and measured after 15 mins by Lineweaver-Burk plot analysis
[8] = in vivo; details: Sprague-Dawley, rat, brain/plasma, 100 mg/kg
Description: Ratio of drug concentration in brain to plasma in Sprague-Dawley rat at 100 mg/kg measured at 10 mins by LC-MS analysis

[9] = Acute toxicity in Sprague-Dawley rat assessed as lethal dose administered intragastrically as single dose measured after 14 days; details: in vivo, po, time 14 day
[10] = test system: Mus musculus; experiment: Anti-alzheimer activity against scopolamine-induced cognitive dysfunction mouse model assessed as increase in rate of time spend in central and peripheral area at 50 to 100 mg/kg,po dosed for 10 days and measured after 30 mins on day 11 by open field test; assay type: functional, organism-based; details: dose 50-100 mg/kg, time 10.0 day
[11] = Cmax in Sprague-Dawley rat at 100 mg/kg, po measured upto 24 hrs by LC-MS analysis; assay type: ADME, organism-based; design: route oral, dose 100 mg/kg, time <=24; details: in vivo
[12] = target: T2, Acetylcholinesterase (Electrophorus electricus, UniProt O42275); experiment: Inhibition of electric eel AChE using acetylthiocholine iodide as substrate assessed as inhibition constant at 0.78 to 12.5 uM preincubated for 10 mins followed by substrate addition and measured for 15 mins by Lineweaver-Burk plot analysis
[13] = Half life in Sprague-Dawley rat at 100 mg/kg, po measured upto 24 hrs by LC-MS analysis; assay type: ADME, organism-based; details: in vivo
[14] = test system: BV-2; experiment: Anti-neuroinflammation in mouse BV-2 cells assessed as decrease in LPS-induced IL-6 production at 6.25 to 25 umol/L measured after 24 hrs by ELISA; assay type: functional, cell-based; details: dose 6.25-25 µmol/L
[15] = test system: BV-2; experiment: Effect of compound on LPS- induced ROS production in mouse BV-2 cells at 6.25 to 25 uM by microscopic analysis; assay type: functional, cell-based; details: dose 6.25-25 µM
[16] = Acute toxicity in Sprague-Dawley rat assessed as histological changes in heart at 2000 mg/kg, IG administered as single dose measured after 14 days by H and E staining based analysis; assay type: organism-based; details: in vivo, po, 336 h, time 14 day
[17] = test system: BV-2; experiment: Anti-neuroinflammation in mouse BV-2 cells assessed as decrease in LPS-induced TNF-alpha production at 6.25 to 25 umol/L measured after 24 hrs by ELISA; assay type: functional, cell-based; details: dose 6.25-25 µmol/L
[18] = test system: HT-22; experiment: cells; assay type: functional, cell-based; details: Mus musculus, HT-22, 24 h
Description: Cytotoxicity against mouse HT-22 cells assessed as reduction in cell viability measured after 24 hrs by MTT assay

[19] = test system: BV-2; experiment: cells; assay type: functional, cell-based; details: Mus musculus, BV-2, 24 h
Description: Cytotoxicity against mouse BV-2 cells assessed as reduction in cell viability measured after 24 hrs by MTT assay

[20] = test system: Mus musculus; experiment: Anti-alzheimer activity against scopolamine-induced cognitive dysfunction mouse model assessed as increase in movement distance in central and peripheral area at 50 to 100 mg/kg,po dosed for 10 days and measured after 30 mins on day 11 by open field test; assay type: functional, organism-based; details: dose 50-100 mg/kg, time 10.0 day
[21] = Acute toxicity in Sprague-Dawley rat assessed as abnormality in diet at 2000 mg/kg, IG administered as single dose measured after 14 days; assay type: organism-based; details: in vivo, po, 336 h, time 14 day
[22] = test system: Mus musculus; experiment: Anti-alzheimer activity against scopolamine-induced cognitive dysfunction mouse model assessed as decrease in swimming distance at 100 mg/kg, po dosed for 10 days and measured after 30 mins on day 11 by Morris water maze test; assay type: functional, organism-based; details: time 10.0 day
[23] = Tmax in Sprague-Dawley rat at 100 mg/kg, po measured upto 24 hrs by LC-MS analysis; assay type: ADME, organism-based; details: in vivo
[24] = test system: BV-2; experiment: Anti-neuroinflammation in mouse BV-2 cells assessed as inhibition of LPS-induced NO production at 100 to 3.125 umol/L measured after 24 hrs by Griess method; assay type: functional, cell-based; details: dose 100-3.125 µmol/L
[25] = test system: Mus musculus; experiment: Anti-alzheimer activity against scopolamine-induced cognitive dysfunction mouse model assessed as […] of AChE activity in hippocampus at 50 to 100 mg/kg, po dosed for 10 days by colorimetric analysis; assay type: functional, organism-based; details: dose 50-100 mg/kg, time 10.0 day
[26] = Acute toxicity in Sprague-Dawley rat assessed as abnormality in living off at 2000 mg/kg, IG administered as single dose measured after 14 days; assay type: organism-based; details: in vivo, po, 336 h, time 14 day
[27] = test system: Mus musculus; experiment: Anti-alzheimer activity against scopolamine-induced cognitive dysfunction mouse model assessed as change in neuron damage in hippocampal CA3 region at 50 to 100 mg/kg, po measured after 10 days by Nissl staining based assay; assay type: functional, organism-based; details: Hippocampus, dose 50-100 mg/kg, time 10.0 day
[28] = test system: Mus musculus; experiment: Anti-alzheimer activity against scopolamine-induced cognitive dysfunction mouse model assessed as change in neuron damage in hippocampal CA1 region at 50 to 100 mg/kg, po measured after 10 days by Nissl staining based assay; assay type: functional, organism-based; details: Hippocampus, dose 50-100 mg/kg, time 10.0 day
[29] = Acute toxicity in Sprague-Dawley rat assessed as histological changes in brain at 2000 mg/kg, IG administered as single dose measured after 14 days by H and E staining based analysis; assay type: organism-based; details: in vivo, po, 336 h, time 14 day
[30] = Acute toxicity in Sprague-Dawley rat assessed as abnormality in body weight at 2000 mg/kg, IG administered as single dose measured after 14 days; assay type: organism-based; details: in vivo, po, 336 h, time 14 day
[31] = target: T2, Acetylcholinesterase; experiment: Inhibition of electric eel AChE using acetylthiocholine iodide as substrate preincubated for 10 mins followed by substrate addition and measured for 15 mins by Ellman's method
[32] = AUC (0 to t) in Sprague-Dawley rat at 100 mg/kg, po measured upto 24 hrs by LC-MS analysis; assay type: ADME, organism-based; design: route oral, dose 100 mg/kg, time <=24; details: in vivo
[33] = test system: BV-2; experiment: Anti-neuroinflammation in mouse BV-2 cells assessed as increase in LPS-induced IL-4 production measured after 24 hrs by ELISA; assay type: functional, cell-based; details: dose 6.25-25 µmol/L
[34] = test system: BV-2; experiment: Anti-neuroinflammation in mouse BV-2 cells assessed as decrease in LPS-induced iNOS activity at 6.25 to 25 umol/L by fluorescence based assay; assay type: functional, cell-based; details: dose 6.25-25 µmol/L
[35] = Acute toxicity in Sprague-Dawley rat assessed as histological changes in liver at 2000 mg/kg, IG administered as single dose measured after 14 days by H and E staining based analysis; assay type: organism-based; details: in vivo, po, 336 h, time 14 day

T1 sequence (P81908 whole entry): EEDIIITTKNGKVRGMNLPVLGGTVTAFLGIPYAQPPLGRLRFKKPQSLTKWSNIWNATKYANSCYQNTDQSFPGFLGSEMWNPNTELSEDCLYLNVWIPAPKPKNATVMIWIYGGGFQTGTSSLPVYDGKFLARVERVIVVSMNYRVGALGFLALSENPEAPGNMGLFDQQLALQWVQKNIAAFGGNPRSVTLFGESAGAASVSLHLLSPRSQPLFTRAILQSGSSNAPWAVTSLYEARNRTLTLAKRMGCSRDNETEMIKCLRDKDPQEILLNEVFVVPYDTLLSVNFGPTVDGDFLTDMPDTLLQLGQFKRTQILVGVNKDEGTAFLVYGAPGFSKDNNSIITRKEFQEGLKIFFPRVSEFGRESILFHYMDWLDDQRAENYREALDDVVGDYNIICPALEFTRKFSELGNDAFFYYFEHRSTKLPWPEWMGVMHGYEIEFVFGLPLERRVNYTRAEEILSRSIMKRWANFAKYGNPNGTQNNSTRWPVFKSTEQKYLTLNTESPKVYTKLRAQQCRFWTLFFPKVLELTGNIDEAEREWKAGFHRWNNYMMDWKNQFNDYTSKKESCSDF
T2 sequence (O42275 whole entry): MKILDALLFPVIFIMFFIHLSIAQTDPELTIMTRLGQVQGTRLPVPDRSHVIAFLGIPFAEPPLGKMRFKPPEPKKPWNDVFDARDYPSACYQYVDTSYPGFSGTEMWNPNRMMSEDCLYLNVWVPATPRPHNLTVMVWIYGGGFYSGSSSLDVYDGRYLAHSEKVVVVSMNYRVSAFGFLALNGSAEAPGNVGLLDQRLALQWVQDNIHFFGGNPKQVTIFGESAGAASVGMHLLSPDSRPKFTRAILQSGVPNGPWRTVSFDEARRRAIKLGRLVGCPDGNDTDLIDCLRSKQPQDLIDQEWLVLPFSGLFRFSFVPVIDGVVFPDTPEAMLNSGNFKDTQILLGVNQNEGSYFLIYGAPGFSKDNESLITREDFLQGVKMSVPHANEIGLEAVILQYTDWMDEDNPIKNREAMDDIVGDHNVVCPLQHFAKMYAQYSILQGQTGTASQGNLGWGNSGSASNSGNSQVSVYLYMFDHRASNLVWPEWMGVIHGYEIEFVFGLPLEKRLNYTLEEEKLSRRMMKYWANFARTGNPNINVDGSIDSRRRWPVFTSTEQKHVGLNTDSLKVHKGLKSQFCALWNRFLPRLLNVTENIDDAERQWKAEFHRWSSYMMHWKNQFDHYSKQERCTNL
Sequence of Amyloid-beta precursor protein (Homo sapiens) (P05067 whole entry): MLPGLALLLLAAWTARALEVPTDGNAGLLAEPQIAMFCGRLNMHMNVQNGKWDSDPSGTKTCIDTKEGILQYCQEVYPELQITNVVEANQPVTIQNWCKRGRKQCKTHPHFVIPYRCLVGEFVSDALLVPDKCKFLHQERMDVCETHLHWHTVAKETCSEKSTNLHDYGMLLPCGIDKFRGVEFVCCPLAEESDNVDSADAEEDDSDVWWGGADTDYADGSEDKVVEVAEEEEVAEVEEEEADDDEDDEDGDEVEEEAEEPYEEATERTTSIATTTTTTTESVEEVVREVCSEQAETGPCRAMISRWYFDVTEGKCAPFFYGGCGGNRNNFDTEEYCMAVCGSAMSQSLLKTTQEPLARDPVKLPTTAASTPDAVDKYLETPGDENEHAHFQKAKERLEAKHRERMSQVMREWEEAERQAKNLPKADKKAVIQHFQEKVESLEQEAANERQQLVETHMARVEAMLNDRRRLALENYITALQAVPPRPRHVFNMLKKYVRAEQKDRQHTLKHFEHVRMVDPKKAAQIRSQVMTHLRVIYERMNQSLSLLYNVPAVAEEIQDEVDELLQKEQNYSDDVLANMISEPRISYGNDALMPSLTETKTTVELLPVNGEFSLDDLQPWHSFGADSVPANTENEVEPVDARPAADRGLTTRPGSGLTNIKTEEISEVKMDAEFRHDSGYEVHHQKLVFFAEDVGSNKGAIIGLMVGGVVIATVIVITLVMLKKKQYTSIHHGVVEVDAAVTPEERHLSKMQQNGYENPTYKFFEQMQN

## CON(C)C(=O)Oc1ccccc1C(=O)NCCc1c[nH]c2ccccc12
[1]
  MRT last at 24 h: 4.89 h
[2]
  Activity: Non-Toxic
[3]
  IC50: 1840 nM
[4]
  Activity: Non-Toxic
[5]
  Activity: Dose-Dependent Effect
[6]
  inhibition: 40.3%
[7]
  Ki: 892 nM
[8]
  Kp at 10 min: 15.7
[9]
  LD50 at 336 h: > 2000 mg/kg
[10]
  Activity: Dose-Dependent Effect
[11]
  Cmax: 3030 ng/mL
[12]
  Ki: 1600 nM
[13]
  half-life: 5.34 h
[14]
  Activity: Active
[15]
  Activity: Active
[16]
  Activity: Non-Toxic
[17]
  Activity: Active
[18]
  IC50: 140000 nM
[19]
  IC50: 197000 nM
[20]
  Activity: Dose-Dependent Effect
[21]
  Activity: Non-Toxic
[22]
  Activity: Active
[23]
  Tmax: 4.8 min
[24]
  Activity: Active
[25]
  Activity: Active
[26]
  Activity: Non-Toxic
[27]
  Activity: Active
[28]
  Activity: Active
[29]
  Activity: Non-Toxic
[30]
  Activity: Non-Toxic
[31]
  IC50: 3240 nM
[32]
  AUC(0-t) at 24 h: 3900 ng·h/mL
[33]
  Activity: Dose-Dependent Effect
[34]
  Activity: Active
[35]
  Activity: Non-Toxic
